Source: US20230165869A1, “DIAZINE AND TRIAZINE COMPOUNDS TO TREAT CYTOKINE STORM SYNDROME” (UNIVERSITY OF GREENWICH, priority 2020, published 2023)
Like-named read-outs stand apart in the source and are kept apart here.

Columns and labels:
Interleukin-17A = Interleukin-17A secretion from PMA/ionomycin-stimulated PBMCs; type: cell-based, human; conditions: for inhibition of IL-17 / IL-17A: stimulated human PBMCs, result in words
Method: (§1) The compounds of Formula (I) may be investigated for inhibition of pro-inflammatory cytokines Interleukin (IL)-[…], 6,8 and 17A, Interferon (IFN)-gamma and Tumour necrosis factor (TNF)-α in peripheral blood mononuclear cells (PBMCs) isolated from fresh human buffy coats by centrifugation on Lymphoprep™ (Stemcell Technologies). All human cells are grown in cell culture medium RPMI-1640 supplemented with 1% penicillin/streptomycin and 5% heat inactivated fetal bovine serum.
(§2) PBMCs stimulated with PMA/ionomycin are incubated for 24 hours containing the compounds under investigation, reconstituted in DMSO. The secreted levels of Interleukin-17A are measured in the cell culture supernatant using a cytometric bead array and the cell viability is quantified using Trypan blue.
(§3) 3,5-Diamino-6-(diphenylmethyl)-1,2,4-triazine was also investigated for […] inhibition in a human PBMC model: […]

Interleukin-8 = Interleukin-8 secretion from PBMCs stimulated with TNF-α and IL-17A; type: cell-based; conditions: stimulated human PBMCs, result in words
Method: as §1
as §2, with “a mixture between TNF-α and IL-17A” for “PMA/ionomycin”, “hours whilst” for “hours”, “Interleukin-8” for “Interleukin-17A”

Interleukin-1β = Interleukin-1β secretion from LPS-stimulated PBMCs; type: cell-based; conditions: stimulated human PBMCs, result in words
Method: as §1
as §2, with “LPS (Salmonella enterica serotype typhimurium)” for “PMA/ionomycin”, “dimethyl sulfoxide (DMSO).” for “DMSO.”, “Interleukin-1β and Interleukin-6” for “Interleukin-17A”

Tumour necrosis factor-α = Tumour necrosis factor-α secretion from PMA/ionomycin-stimulated PBMCs; type: cell-based; conditions: stimulated human PBMCs, result in words
Method: as §1
as §2, with “Interferon-gamma and Tumour necrosis factor-α” for “Interleukin-17A”, “Human Quantikine ELISA Kit” for “cytometric bead array”

Interleukin-6 = Interleukin-6 secretion from LPS-stimulated PBMCs; type: cell-based; conditions: stimulated human PBMCs, result in words
Method: as §1
as §2, with “LPS (Salmonella enterica serotype typhimurium)” for “PMA/ionomycin”, “dimethyl sulfoxide (DMSO).” for “DMSO.”, “Interleukin-1β and Interleukin-6” for “Interleukin-17A”

Interferon-gamma = Interferon-gamma secretion from PMA/ionomycin-stimulated PBMCs; type: cell-based; conditions: stimulated human PBMCs, result in words
Method: as §1
as §2, with “Interferon-gamma and Tumour necrosis factor-α” for “Interleukin-17A”, “Human Quantikine ELISA Kit” for “cytometric bead array”

IL-2 = IL-2 release from stimulated CD4-positive T cells; type: cell-based, human
Method: (§4) The compounds may be investigated for inhibition of pro-inflammatory cytokines Interleukin-2, 4 and 13 in human CD4-positive T cells isolated from fresh isolated PBMCS using a CD4-positive T cell isolation kit.
(§5) CD4-positive T cells stimulated with beads coated with antibodies against CD2, CD3 and CD28 are incubated for 48 hours containing the compounds under investigation, reconstituted in DMSO. The secreted levels of Interleukin-2, 4 and 13 are measured in the cell culture supernatant using a cytometric bead array and the cell viability is measured using an MTT (3-(4,5-dimethylthiazol-2-yl)-2,5-diphenyltetrazolium bromide) assay.
(§6) Secreted IL-4 levels may be measured using electrochemiluminescence (MSD kits, Meso Scale Discovery), while secreted IL-2 levels may be measured using proximity homogenous time-resolved fluorescence (HTRF) and the amount of living cells may be measured by addition of resazurin (PrestoBlue®).

[1] = PBMC viability in the IL-17A human PBMC model; type: cell-based; conditions: PBMCs stimulated with PMA/ionomycin; human PBMC model, maximum effect; read-out: Inhibition of PMBC viability, Max effect
Method: as §2, §3

PBMC = PBMC viability in the IL-17A human PBMC model; type: cell-based; conditions: Homo sapiens, PBMC
Method: as §2, §3

T cell = T cell proliferation in the IL-2/IL-4 inhibition assays; type: cell-based, human
Method: as §4, §5, §6

IL-4 = IL-4 release from stimulated CD4-positive T cells; type: cell-based, human
Method: as §4, §5, §6

What does the source list for `Nc1nnc(-c2sc(Cl)c(Cl)c2Cl)c(N)n1` [Compound 1, 3,5-diamino-6-[2-(3,4,5-trichlorothienyl)]-1,2,4-triazine]?
inhibition of IL-17 / IL-17A (Interleukin-17A): moderate inhibition; inhibition of IL-8 (Interleukin-8): high inhibition; inhibition of IL-1β (Interleukin-1β): high inhibition; inhibition of TNF-α (Tumour necrosis factor-α): high inhibition; inhibition of IL-6 (Interleukin-6): high inhibition; inhibition of IFN-γ (Interferon-gamma): high inhibition

Which results are given for `Nc1nnc(C(c2ccccc2)c2ccccc2)c(N)n1` [Compound 2, 3,5-Diamino-6-(diphenylmethyl)-1,2,4-triazine]?
EC50 (IL-2; Homo sapiens, CD4 positive, absolute EC50, read-out: Inhibition of IL-2 release, Abs EC50): 0.015 µM; Emax (IL-2; Homo sapiens, CD4 positive, maximum effect, read-out: Inhibition of IL-2 release, Max Effect): 97%; EC50 (IL-2; Homo sapiens, CD4 positive, relative EC50, read-out: Inhibition of IL-2 release, Rel EC50): 0.028 µM; inhibition of IL-2 (IL-2; result in words): good level of inhibition; cytotoxicity at 24 h [1]: 38%; EC50 (PBMC; read-out: Inhibition of PMBC viability, Abs EC50): > 10 µM; EC50 (PBMC; read-out: Inhibition of PMBC viability, Rel EC50): 44 µM; EC50 (T cell; Homo sapiens, T-cell, absolute EC50, read-out: Inhibition of T cell proliferation, Abs EC50): > 10 µM; Emax (T cell; Homo sapiens, T-cell, maximum effect, read-out: Inhibition of T cell proliferation, Max Effect): 28%; EC50 (T cell; Homo sapiens, T-cell, relative EC50, read-out: Inhibition of T cell proliferation, Rel EC50): > 10 µM; inhibition of T cell proliferation (T cell; result in words): without significant inhibition; EC50 (IL-4; Homo sapiens, CD4 positive, absolute EC50, read-out: Inhibition of IL-4 release, Abs EC50): 0.0613 µM; Emax (IL-4; Homo sapiens, CD4 positive, maximum effect, read-out: Inhibition of IL-4 release, Max Effect): 99%; EC50 (IL-4; Homo sapiens, CD4 positive, relative EC50, read-out: Inhibition of IL-4 release, Rel EC50): 0.0505 µM; EC50 (IL-4; relative EC50, read-out: Inhibition of IL-4 release, Rel EC50): 0.0584 µM; inhibition of IL-4 (IL-4; result in words): good level of inhibition; EC50 (Interleukin-17A; human PBMC model, absolute EC50, read-out: Inhibition of IL-17A release, Abs EC50): 0.317 µM; Emax (Interleukin-17A; human PBMC model, maximum effect, read-out: Inhibition of IL-17A release, Max effect): 86%; EC50 (Interleukin-17A; human PBMC model, relative EC50, read-out: Inhibition of IL-17A release, Rel EC50): 0.261 µM; inhibition of IL-17 / IL-17A (Interleukin-17A): high inhibition; inhibition of IL-8 (Interleukin-8): high inhibition; inhibition of IL-1β (Interleukin-1β): moderate inhibition; inhibition of TNF-α (Tumour necrosis factor-α; at the top concentration): high inhibition; inhibition of IL-6 (Interleukin-6): moderate inhibition; inhibition of IFN-γ (Interferon-gamma): high inhibition
